Test results from US9045505B2, “Nitric oxide donors” (University of Otago, priority 2006, dated 2015).

Assays:
liver mitochondria = assay: S-nitrosation of mitochondrial protein thiols (chemiluminescence SNO assay); format: biochemical, rat; settings: for S-nitrosation of mitochondrial proteins: 2.5 min incubation, SNAP even at 50 μM
Method: FIG. 11 is a series of graphs showing S-nitrosation of mitochondrial thiols by MitoSNAP. (a) Time course of S-nitrosation of mitochondrial proteins by MitoSNAP. Liver mitochondria (1 mg protein) were incubated in 1 ml KCl buffer supplemented with rotenone and succinate in the presence of 5 μM MitoSNAP. At various times mitochondria were treated with 10 mM N-ethylmaleimide (NEM), isolated by centrifugation and the S-nitrosothiol content assessed. Data are of a typical experiment showing means±range of duplicate samples for each time point, each measured in duplicate. The experiment was repeated twice. (b) S-nitrosation of mitochondrial proteins by different concentrations of MitoSNAP and SNAP. Aliquots of liver mitochondria were incubated with the indicated concentrations of MitoSNAP or SNAP for […] in the presence or absence of 500 nM FCCP and then assessed for S-nitrosothiol content as in (a). For the +NEM sample, 10 mM NEM was added to the mitochondria and 1 min later 5 μM MitoSNAP was added and incubated for a further 2.5 min. Data are of a typical experiment showing means±range of duplicate samples for each time point, each measured in duplicate. The experiment was repeated twice. (c) S-nitrosation of cellular protein thiols by MitoSNAP. C2C12 cells were preincubated for 5 min in 2 ml cell culture medium containing either 20 μM FCCP or DMSO carrier, then 5 μM MitoSNAP or SNAP was added. After further incubation for 5 min at 37° C. in the dark, the medium was removed and the content of S-nitrosated proteins was measured. Data are means±range of the duplicate determinations. […] (d) S-nitrosation of a mitochondria-enriched cell subfraction. C2C12 cells were preincubated for 5 min in cell culture medium containing either 20 μM FCCP or dimethylsulfoxide (DMSO) carrier, then 5 μM MitoSNAP was added. After 5 min at 37° C. in the dark, the medium was removed and the cells were processed to isolate a mitochondria-enriched fraction and S-nitrosated protein was then determined Data are mean±sem of triplicate determinations (+MitoSNO1), or mean±range of duplicate determinations (+FCCP). (e & f) Visualisation of S-nitrosated mitochondrial proteins by copper/ascorbate-dependent labelling of thiols with a Cy3 fluorophore. Liver (e) or heart (f) mitochondria (1 mg protein) were incubated in 1 ml KCl buffer supplemented with rotenone and succinate in the presence of no additions, 10 μM MitoSNAP or 500 μM diamide for 5 min. S-nitrosated thiols were then selectively tagged with Cy3 maleimide and protein (10 μg) was then separated on a 12.5% SDS PAGE gel which was stained with coomassie blue and scanned for Cy3 fluorescence. The Cy3 fluorescence (SNO) and coomassie staining (coomassie) of each gel is shown.
FIG. 13 is a trace and graph showing limited S-nitrosation of mitochondria by DetaNONOate. […] Where indicated 500 μM DetaNONOate was added and the concentration of NO^• was measured over time, before 5 μM OxyHb was added. […] Then protein pellets were resuspended and processed for analysis of protein S-nitrosothiols. Control incubations in the presence of 10 mM NEM were also carried out. Data are means±range of two independent experiments each being the average of four mitochondrial incubations.
Nitrite, nitric oxide and S-nitrosothiol measurements. Nitrite was analyzed by the Griess assay (Molecular Probes). Nitric oxide was measured using an NO^• electrode (World Precision Instruments Ltd, UK) connected to an Apollo 4000 Free Radical Analyser. The electrode was inserted into a stirred, sealed 3 ml chamber with a Clark type O2 electrode (Rank Brothers, UK) built into its base and was thermostatted at 37° C. The NO^• electrode was calibrated by adding SNAP to argon-purged, saturated CuCl. OxyHb was prepared by reduction of bovine methemoglobin with sodium dithionite.

[1] = tested on: endothelium-denuded rat small mesenteric artery; assay: Vasorelaxation of endothelium-denuded rat small mesenteric artery; settings: logistic fit; for EC50: Rattus norvegicus, precontracted with methoxamine
Method: FIG. 17 is a graph showing vasorelaxation of endothelium-denuded rat small mesenteric artery preparations by MitoSNAP and SNAP. To measure vessel relaxation in endothelium-denuded rat mesenteric artery male Wistar rats (250-350 g) were anesthetized with sodium pentobarbitone (60 mg/kg ip Sagatal, Rhone Merieux, Harlow, Essex UK). The mesentery was removed and placed in ice-cold, gassed (95% O2/5% CO2) Krebs-Henseleit buffer. […] Vessels were maintained at 37° C. in Krebs-Henseleit solution containing indomethacin (10 μM) and bubbled with 95% O2/5% CO2 and were allowed to equilibrate under zero tension for 60 min. After equilibration vessels were normalized to a tension equivalent that generated at 90% of the diameter of the vessel at 100 mm Hg^3. Vessels were precontracted with methoxamine and then sequential cumulative additions of test compounds were made to relax the vessels shielded from direct light. Relaxation of muscle tone are expressed as a percentage of relaxation of the initial tone. Data are means of four determination of MitoNAP and MitoSNAP and of 6 for SNAP. Data from the dose-response curves were fitted to a logistic curve, with the following parameters: […]

Row | SMILES | S-nitrosation of mitochondrial proteins (liver mitochondria) | EC50 [1] [nM] | max. relaxation of induced tone [1] [%] | slope function (Hill slope) [1] | maximum S-nitrosation as share of the total number of protein thiols available (liver mitochondria; 5 μM) [%] | maximum extent of mitochondrial protein S-nitrosation (liver mitochondria; 5 μM) [pmol SNO/mg protein] | S-nitrosated proteins after sulfosalicylic acid lysis and precipitation (control experiment) (liver mitochondria; 5 μM, 5 min, mean±SEM of 4) [pmol SNO/mg protein] | time of peak S-nitrosation of mitochondrial proteins (liver mitochondria; 5 μM, liver mitochondria) [min]
1 | CC(=O)NC(C(=O)O)C(C)(C)SN=O (racemic) [SNAP, S-nitroso-N-acetyl-DL-penicillamine, reference compound] | negligible S-nitrosation | 5.2 ± 0.5 | 92±2 | 1.0±0.1 | – | – | – | –
2 | CC(=O)NC(C(=O)NCCCCC[P+](c1ccccc1)(c1ccccc1)c1ccccc1)C(C)(C)SN=O.CS(=O)(=O)[O-] (stereo not drawn) [MitoSNAP, [5-(2-acetylamino-3-methyl-3-nitrosothio-butyrylamino)-penty1]-triphenylphosphonium methanesulfonate] | extensive, concentration-dependent S-nitrosation | 16.5 ± 1.1 | 96±1 | 1.3±0.1 | ~1 | ~500 | 359±89 | 2 to 3
